For one assay, the target named is T1, KRas G12C (Homo sapiens, UniProt P01116, G12C).
T1 construct: Biotinylated KRas (corresponding to amino acids 1-169, produced at Accelegan Inc.); biotin (biotinylated); purchased Accelegan Inc
As to the kind of experiment: KRas binding assay, TR-FRET displacement of Cy5 labelled tracer. As to conditions: 60-minute incubation at room temperature, 1% DMSO, pH 7.5. In short, it runs like this:
(§1)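 Biotinylated KRas (residues 1-169) was incubated with tracer, terbium-streptavidin and compound at 1% DMSO final in 50 mM HEPES pH 7.5 containing 5 mM MgCl2, 0.005% Tween-20 and 1 mM DTT. The plate was read after 60 min at room temperature, and percent-of-control data were fit to a 4-parameter IC50 equation.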

In another assay the target is T2, KRas G12S (Homo sapiens, UniProt P01116, G12S).
T2 construct: Biotinylated KRas (corresponding to amino acids 1-169, produced at Accelegan Inc.); biotin (biotinylated); purchased Accelegan Inc
The assay is described as above. As to conditions: 60-minute incubation at room temperature, 1% DMSO, pH 7.5. The method in brief: as §1

A further assay addresses T3, KRas WT (Homo sapiens, UniProt P01116).
T3 construct: Biotinylated KRas (corresponding to amino acids 1-169, produced at Accelegan Inc.); biotin (biotinylated); purchased Accelegan Inc
The description is as above. As to conditions: 60-minute incubation at room temperature, 1% DMSO, pH 7.5. In short, it runs like this:
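TR-FRET tracer-displacement readout after 60 min at room temperature, using KRas residues 1-169 (biotinylated) with terbium streptavidin and a Cy5 tracer. Buffer: 50 mM HEPES pH 7.5, 5 mM MgCl2, 0.005% Tween-20, 1 mM DTT, 1% DMSO final. IC50 from 4-parameter fit of POC data.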

The target in assay [1] is T4, KRas-mediated phosphorylation of ERK in MKN1 cells (Homo sapiens, UniProt P01116).
T4 construct: pERK HTRF read-out
Kind of assay: Inhibition of KRas-mediated phosphorylation of ERK (HTRF), MKN1 cells. The note with it: MKN1 cells (KRas WT); HTRF pERK; 3 h incubation. Format: cell-based. How it is done: Inhibition of KRas Phosphorylation of ERK (HTRF) by Exemplary Compounds of Formula (Ia) or (Ib)
Cisbio HTRF Advanced pERK Assay Catalog #64AERPEH • Cells: MKN1, PSN1 • Procedure: • 1. Day 1: Seed 6,000 cells/well −25 μl/well in 384-well white solid bottom plate; RPM1_10% FBS. Incubate overnight at 37 °C/5% CO2. • 2.

For assay [2], the target named is T5, KRas-mediated phosphorylation of ERK in A549 cells (Homo sapiens, UniProt P01116, G12S).
T5 construct: pERK HTRF read-out
Kind of assay: Inhibition of KRas-mediated phosphorylation of ERK (HTRF), A549 cells. Format: cell-based. The note with it: HTRF pERK, 3 h incubation.

Assay [3] addresses T6, KRas-mediated phosphorylation of ERK in H358 cells (Homo sapiens, UniProt P01116, G12C).
T6 construct: pERK HTRF read-out
Kind of assay: Inhibition of KRas-mediated phosphorylation of ERK (HTRF), H358 cells. It counts as cell-based. The note with it: HTRF pERK, 3 h incubation.

The structures appear in SMILES notation.

T1 sequence (P01116 1-169 isoform P01116-2 G12C): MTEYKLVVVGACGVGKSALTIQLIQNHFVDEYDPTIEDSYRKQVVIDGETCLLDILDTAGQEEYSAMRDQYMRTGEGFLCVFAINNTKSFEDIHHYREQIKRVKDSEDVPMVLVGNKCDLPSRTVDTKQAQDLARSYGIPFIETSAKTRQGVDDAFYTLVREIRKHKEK
T5 sequence (P01116 1-188 isoform P01116-2 G12S): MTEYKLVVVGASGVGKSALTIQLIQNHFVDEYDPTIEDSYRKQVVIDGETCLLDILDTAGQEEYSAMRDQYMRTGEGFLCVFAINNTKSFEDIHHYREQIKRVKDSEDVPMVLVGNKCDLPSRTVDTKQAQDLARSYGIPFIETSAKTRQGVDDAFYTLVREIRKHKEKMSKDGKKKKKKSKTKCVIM
T3 sequence (P01116 1-169 isoform P01116-2): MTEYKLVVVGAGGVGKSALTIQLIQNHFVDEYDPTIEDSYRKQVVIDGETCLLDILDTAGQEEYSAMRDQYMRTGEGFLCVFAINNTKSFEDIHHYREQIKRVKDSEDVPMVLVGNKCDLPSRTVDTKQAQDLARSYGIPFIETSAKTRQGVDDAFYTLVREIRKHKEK
T6 sequence (P01116 1-188 isoform P01116-2 G12C): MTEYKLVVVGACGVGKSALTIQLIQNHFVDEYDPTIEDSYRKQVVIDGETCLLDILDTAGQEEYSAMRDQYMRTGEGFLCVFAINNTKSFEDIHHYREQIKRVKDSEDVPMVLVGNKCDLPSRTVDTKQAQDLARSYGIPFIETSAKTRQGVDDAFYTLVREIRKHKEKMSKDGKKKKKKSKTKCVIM
T4 sequence (P01116 1-188 isoform P01116-2): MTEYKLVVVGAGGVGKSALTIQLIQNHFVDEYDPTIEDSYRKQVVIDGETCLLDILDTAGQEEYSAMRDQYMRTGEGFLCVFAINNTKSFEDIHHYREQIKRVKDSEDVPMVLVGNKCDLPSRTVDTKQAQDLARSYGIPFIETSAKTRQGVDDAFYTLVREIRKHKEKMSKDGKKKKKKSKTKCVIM
T2 sequence (P01116 1-169 isoform P01116-2 G12S): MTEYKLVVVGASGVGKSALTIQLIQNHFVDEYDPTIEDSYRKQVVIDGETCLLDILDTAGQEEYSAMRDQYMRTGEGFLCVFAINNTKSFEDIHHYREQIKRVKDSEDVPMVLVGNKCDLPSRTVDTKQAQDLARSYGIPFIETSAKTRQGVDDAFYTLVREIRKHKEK

As for `CN(CCCC(=O)Nc1ccncc1)c1nc(OC[C@@]23CCCN2C[C@H](F)C3)nc2c(F)c(-c3ccc(F)c4sc(N)c(C#N)c34)c(Cl)cc12` [Example 269, 4-((7-(2-amino-3-cyano-7-fluorobenzo[b]thiophen-4-yl)-6-chloro-8-fluoro-2-(((2R,7aS)-2-fluorotetrahydro-1H-pyrrolizin-7a(5H)-yl)methoxy)quinazolin-4-yl)(methyl)amino)-N-(pyridin-4-yl) butanamide], the IC50 on KRas G12C is 4 nM; at KRas G12S it was 6 nM; on KRas WT it was 9 nM; in assay [1] it was 388 nM; in assay [2] it was 1180 nM; in assay [3], 411 nM.
As to `CN(CCCC(=O)Oc1ccc(F)cc1)c1nc(OC[C@@]23CCCN2C[C@H](F)C3)nc2c(F)c(-c3ccc(F)c4sc(N)c(C#N)c34)c(Cl)cc12` [Example 270, 4-fluorophenyl 4-((7-(2-amino-3-cyano-7-fluorobenzo[b]thiophen-4-yl)-6-chloro-8-fluoro-2-(((2R,7aS)-2-fluorotetrahydro-1H-pyrrolizin-7a(5H)-yl)methoxy)quinazolin-4-yl)(methyl)amino)butanoate], the IC50 on KRas G12C is 4 nM; on KRas G12S, 22 nM; on KRas WT, 74 nM; in assay [1], 340 nM; in assay [2], 462 nM; in assay [3], 77 nM.
Regarding `CN(CCCC(=O)Oc1ccc(F)cc1F)c1nc(OC[C@@]23CCCN2C[C@H](F)C3)nc2c(F)c(-c3ccc(F)c4sc(N)c(C#N)c34)c(Cl)cc12` [Example 271, 2,4-difluorophenyl 4-((7-(2-amino-3-cyano-7-fluorobenzo[b]thiophen-4-yl)-6-chloro-8-fluoro-2-(((2R,7aS)-2-fluorotetrahydro-1H-pyrrolizin-7a(5H)-yl)methoxy)quinazolin-4-yl)(methyl)amino)butanoate], the IC50 at KRas G12C was found to be 4 nM; at KRas G12S it was 16 nM; at KRas WT, 81 nM; in assay [1], 177 nM; in assay [2], 139 nM; in assay [3], 31 nM.
Regarding `Cc1ccn(C(=O)C2CCCN(c3nc(OC[C@@]45CCCN4C[C@H](F)C5)nc4c(F)c(-c5ccc(F)c6sc(N)c(C#N)c56)c(C(F)(F)F)cc34)CC2)n1` (stereo partly drawn) [Example 272, 2-amino-7-fluoro-4-(8-fluoro-2-(((2R,7aS)-2-fluorotetrahydro-1H-pyrrolizin-7a(5H)-yl)methoxy)-4-(4-(3-methyl-1H-pyrazole-1-carbonyl)azepan-1-yl)-6-(trifluoromethyl)quinazolin-7-yl)benzo[b]thiophene-3-carbonitrile], the IC50 on KRas G12C was 6 nM; at KRas G12S, 5 nM; on KRas WT, 9 nM; in assay [1], 62 nM; in assay [2] it was 4 nM; in assay [3], 3 nM.
As to `CCc1c(F)ccc2cc(O)cc(-c3ncc4c(N(C)CCC(=O)N(C)C(C)=O)nc(OC[C@@]56CCCN5C[C@H](F)C6)nc4c3F)c12` [Example 273, N-acetyl-3-((7-(8-ethyl-7-fluoro-3-hydroxynaphthalen-1-yl)-8-fluoro-2-(((2R,7aS)-2-fluorotetrahydro-1H-pyrrolizin-7a(5H)-yl)methoxy)pyrido[4,3-d]pyrimidin-4-yl)(methyl)amino)-N-methylpropanamide], the IC50 at KRas G12C turned out to be 30 nM; on KRas G12S, 40 nM; on KRas WT, 58 nM; in assay [1], 340 nM; in assay [2], 745 nM; in assay [3], 494 nM.
`CCc1c(F)ccc2cc(O)cc(-c3ncc4c(N5CCC(C(=O)N(C)C(C)=O)C5)nc(OC[C@@]56CCCN5C[C@H](F)C6)nc4c3F)c12` (stereo partly drawn) [Example 274, N-acetyl-1-(7-(8-ethyl-7-fluoro-3-hydroxynaphthalen-1-yl)-8-fluoro-2-(((2R,7aS)-2-fluorotetrahydro-1H-pyrrolizin-7a(5H)-yl)methoxy)pyrido[4,3-d]pyrimidin-4-yl)-N-methylpyrrolidine-3-carboxamide]: the IC50 on KRas G12C was found to be 65 nM; on KRas G12S, 89 nM; at KRas WT it was 51 nM; in assay [1], 287 nM; in assay [2], 326 nM; in assay [3], 662 nM.
As for `CCc1c(F)ccc2cc(O)cc(-c3ncc4c(N5CCCCC(C(=O)N(C)C(C)=O)CC5)nc(OC[C@@]56CCCN5C[C@H](F)C6)nc4c3F)c12` (stereo partly drawn) [Example 275, N-acetyl-1-(7-(8-ethyl-7-fluoro-3-hydroxynaphthalen-1-yl)-8-fluoro-2-(((2R,7aS)-2-fluorotetrahydro-1H-pyrrolizin-7a(5H)-yl)methoxy)pyrido[4,3-d]pyrimidin-4-yl)-N-methylazocane-4-carboxamide], the IC50 at KRas G12C worked out at 52 nM; at KRas G12S, 15 nM; at KRas WT, 47 nM; in assay [1], 437 nM; in assay [2] it was 58 nM; in assay [3], 164 nM.
Take `CCc1c(F)ccc2cc(O)cc(-c3ncc4c(N5CC(CC(=O)N(C)C(C)=O)C5)nc(OC[C@@]56CCCN5C[C@H](F)C6)nc4c3F)c12` [Example 276, N-acetyl-2-(1-(7-(8-ethyl-7-fluoro-3-hydroxynaphthalen-1-yl)-8-fluoro-2-(((2R,7aS)-2-fluorotetrahydro-1H-pyrrolizin-7a(5H)-yl)methoxy)pyrido[4,3-d]pyrimidin-4-yl)azetidin-3-yl)-N-methylacetamide]: the IC50 is 129 nM at KRas G12C; 68 nM on KRas G12S; 148 nM on KRas WT; 1030 nM in assay [1]; 101 nM in assay [2]; 1480 nM in assay [3].
Take `CCc1c(F)ccc2cc(O)cc(-c3ncc4c(N5CC6CC(C(=O)N(C)C(C)=O)C6C5)nc(OC[C@@]56CCCN5C[C@H](F)C6)nc4c3F)c12` (stereo partly drawn) [Example 277, N-acetyl-3-(7-(8-ethyl-7-fluoro-3-hydroxynaphthalen-1-yl)-8-fluoro-2-(((2R,7aS)-2-fluorotetrahydro-1H-pyrrolizin-7a(5H)-yl)methoxy)pyrido[4,3-d]pyrimidin-4-yl)-N-methyl-3-azabicyclo[3.2.0]heptane-6-carboxamide]: the IC50 at KRas G12C was 864 nM; on KRas G12S it was 539 nM; at KRas WT, 357 nM; in assay [1] it was 2360 nM; in assay [2], 549 nM; in assay [3], 6510 nM.
In the case of `CCc1c(F)ccc2cc(O)cc(-c3ncc4c(N5CC[C@H]6[C@@H](C5)[C@H]6C(=O)N(C)C(C)=O)nc(OC[C@@]56CCCN5C[C@H](F)C6)nc4c3F)c12` [Example 278, (1R,6S)-N-acetyl-3-(7-(8-ethyl-7-fluoro-3-hydroxynaphthalen-1-yl)-8-fluoro-2-(((2R,7aS)-2-fluorotetrahydro-1H-pyrrolizin-7a(5H)-yl)methoxy)pyrido[4,3-d]pyrimidin-4-yl)-N-methyl-3-azabicyclo[4.1.0]heptane-7-carboxamide], the IC50 on KRas G12C was 58 nM; at KRas G12S it was 48 nM; at KRas WT, 41 nM; in assay [1], 217 nM; in assay [2], 292 nM; in assay [3] it was 1180 nM.
As for `CCc1c(F)ccc2cc(O)cc(-c3ncc4c(N5CC6CC(C(=O)N(C)C(C)=O)CC6C5)nc(OC[C@@]56CCCN5C[C@H](F)C6)nc4c3F)c12` (stereo partly drawn) [Example 279, N-acetyl-2-(7-(8-ethyl-7-fluoro-3-hydroxynaphthalen-1-yl)-8-fluoro-2-(((2R,7aS)-2-fluorotetrahydro-1H-pyrrolizin-7a(5H)-yl)methoxy)pyrido[4,3-d]pyrimidin-4-yl)-N-methyloctahydrocyclopenta[c]pyrrole-5-carboxamide], the IC50 on KRas G12C amounted to 334 nM; at KRas G12S it was 188 nM; on KRas WT it was 332 nM; in assay [1], 1690 nM; in assay [2], 276 nM; in assay [3], 4900 nM.
Consider `CCc1c(F)ccc2cc(O)cc(-c3ncc4c(NCC5CC(C(=O)N(C)C(C)=O)C5)nc(OC[C@@]56CCCN5C[C@H](F)C6)nc4c3F)c12` (stereo partly drawn) [Example 280, N-acetyl-3-(((7-(8-ethyl-7-fluoro-3-hydroxynaphthalen-1-yl)-8-fluoro-2-(((2R,7aS)-2-fluorotetrahydro-1H-pyrrolizin-7a(5H)-yl)methoxy)pyrido[4,3-d]pyrimidin-4-yl)amino)methyl)-N-methylcyclobutane-1-carboxamide], for which the IC50 was found to be 17 nM on KRas G12C; 14 nM at KRas G12S; 9 nM at KRas WT; 102 nM in assay [1]; 107 nM in assay [2]; 428 nM in assay [3].

Source of the values: US20260356856A1, “KRAS G12S AND G12C INHIBITORS” (MIRATI THERAPEUTICS, INC., priority 2023, published 2026).
